Test results published in the supplement of paper PMC4862054.

How the values were obtained:
Experiment in all cases: normalised response (% of control), CellTiter-Glo; higher = more viable cells (100 = DMSO, 0 = benzethonium chloride kill control)
Conditions in all cases: incubation time: 72 h
[1] = test system: MCF-10A
In short: (§1)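 Each value is the plate-normalised signal at one concentration of the series. Breast cancer cell lines (20 µl suspension) were incubated 72 h in 384-well plates with compound at 5 concentrations in 10-fold steps over a compound-specific 10,000-fold range. CellTox Green and then CellTiter-Glo were read, and each plate was scaled to 0.1 % DMSO (100) and a positive kill control (0).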

[2] = test system: CAL-85-1
In short: as §1

[3] = test system: DU-4475
In short: as §1

[4] = test system: Hs578T
In short: as §1

[5] = test system: MDA-MB-231
In short: as §1

[6] = test system: BT-549
In short: as §1

[7] = test system: HCC1143
In short: as §1

[8] = test system: MDA-MB-453
In short: as §1

[9] = test system: HDQ-P1
In short: as §1

[10] = test system: HCC1937
In short: as §1

[11] = test system: SK-BR-3
In short: as §1

[12] = test system: MDA-MB-436
In short: as §1

[13] = test system: HCC1599
In short: as §1

[14] = test system: MDA-MB-468
In short: as §1

[15] = test system: MFM-223
In short: as §1

[16] = test system: CAL-148
In short: as §1

[17] = test system: BT-474
In short: as §1

[18] = test system: CAL-51
In short: as §1

[19] = test system: CAL-120
In short: as §1

SMILES | normalised response [1] [%] | normalised response [2] [%] | normalised response [3] [%] | normalised response [4] [%] | normalised response [5] [%] | normalised response [6] [%] | normalised response [7] [%] | normalised response [8] [%] | normalised response [9] [%] | normalised response [10] [%] | normalised response [11] [%] | normalised response [12] [%] | normalised response [13] [%] | normalised response [14] [%] | normalised response [15] [%] | normalised response [16] [%] | normalised response [17] [%] | normalised response [18] [%] | normalised response [19] [%]
CCCCC/C=C/C=C1/C(=O)C=C[C@@H]1C/C=C\CCCC(=O)O [15D-PGJ2] (0.8 nM) | 104 | 94.7 | 102 | 101 | 102 | 97.8 | 108 | 97 | 98.9 | 108 | 101 | 98.2 | 93.8 | 92.8 | 102 | 107 | 103 | 81.2 | 100
O=C(Nc1c[nH]nc1-c1nc2ccc(CN3CCOCC3)cc2[nH]1)NC1CC1 [AT9283] (0.1 nM) | 97.5 | 95.8 | 101 | 97.5 | 104 | 89 | 97 | 98.4 | 96.8 | 99.9 | 90 | 97.5 | 109 | 97.2 | 100 | 99.5 | 102 | 81.9 | 45.5
COc1cc(CCc2cc(NC(=O)c3ccc(N4CC(C)NC(C)C4)cc3)n[nH]2)cc(OC)c1 (stereo not given) [AZD4547] (0.1 nM) | 92.3 | 97.9 | 97.9 | 95.3 | 101 | 105 | 101 | 97.5 | 99.9 | 94.2 | 91.5 | 102 | 115 | 103 | 93.2 | 82.8 | 97.5 | 135 | 104
COc1cc(CCc2cc(NC(=O)c3ccc(N4CC(C)NC(C)C4)cc3)n[nH]2)cc(OC)c1 (stereo not given) [AZD4547] (1 nM) | 96.7 | 96.9 | 94.6 | 98.6 | 96 | 94.8 | 97 | 91.9 | 98.3 | 98.4 | 106 | 97.2 | 104 | 97.8 | 91.9 | 85 | 103 | 102 | 101
CC(=O)OC[C@H]1O[C@@H]([S-])[C@H](OC(C)=O)[C@@H](OC(C)=O)[C@@H]1OC(C)=O.CCP(CC)CC.[Au+] [Auranofin] (0.25 nM) | 108 | 93.8 | 97.9 | 104 | 104 | 97.4 | 99 | 103 | 99.9 | 92.3 | 101 | 93.8 | 75.3 | 95.7 | 103 | 101 | 99.4 | 70.1 | 100
CC(=O)OC[C@H]1O[C@@H]([S-])[C@H](OC(C)=O)[C@@H](OC(C)=O)[C@@H]1OC(C)=O.CCP(CC)CC.[Au+] [Auranofin] (2.5 nM) | 107 | 95.4 | 105 | 103 | 108 | 95.8 | 97.8 | 99.8 | 91.3 | 94.5 | 104 | 103 | 87.5 | 99.2 | 104 | 106 | 99.4 | 111 | 92.5
CCC/C=C/C=C/C(=O)O[C@H]1/C(=C/C(=O)OC)C[C@H]2C[C@H]([C@@H](C)O)OC(=O)C[C@H](O)C[C@@H]3C[C@H](OC(C)=O)C(C)(C)[C@](O)(C[C@@H]4C/C(=C/C(=O)OC)C[C@H](/C=C/C(C)(C)[C@]1(O)O2)O4)O3 [Bryostatin 1] (0.01 nM) | 108 | 101 | 107 | 100 | 105 | 99.1 | 97.7 | 109 | 97.8 | 98.6 | 103 | 101 | 118 | 104 | 105 | 101 | 106 | 92.1 | 96.1
CO[C@@H](C(=O)N1Cc2[nH]nc(NC(=O)c3ccc(N4CCN(C)CC4)cc3)c2C1)c1ccccc1 [Danusertib] (1 nM) | 94.2 | 96.3 | 99 | 98 | 104 | 102 | 91.5 | 110 | 93.9 | 95.5 | 90.8 | 103 | 121 | 101 | 94.8 | 98.2 | 101 | 101 | 99.1
Cc1nc(Nc2ncc(C(=O)Nc3c(C)cccc3Cl)s2)cc(N2CCN(CCO)CC2)n1 [Dasatinib] (0.1 nM) | 107 | 94.2 | 94.6 | 99.7 | 93.9 | 98.3 | 96.5 | 112 | 98.9 | 98.5 | 98.3 | 101 | 99 | 93.3 | 99.9 | 96.9 | 97.3 | 77 | 98.9
O=S(=O)(c1cccc2cnccc12)N1CCCNCC1 [Fasudil] (5 nM) | 97.9 | 102 | 101 | 97.3 | 101 | 99.6 | 96.1 | 107 | 103 | 94.8 | 101 | 98 | 109 | 103 | 99.3 | 105 | 97.4 | 81.8 | 95.5
